Data taken from article PMC8500670, “A selective WDR5 degrader inhibits acute myeloid leukemia in patient-derived mouse models” (Science translational medicine, 2021).
Read-outs that look alike come from different tables or passages of the source.

Columns and labels:
Assay in all cases: biochemical
5-HT2B = target: T1, 5-HT2B (Homo sapiens, UniProt P41595); set-up: GPCR, ion channel and transporter panel, per cent inhibition of binding, mean of four
T1 construct: gene HTR2B
Method: (§1) We next assessed selectivity of MS67 against 22 protein methyltransferases (table S2) and a broad panel of common drug targets including 45 kinases (table S3) and 44 G protein–coupled receptors (GPCR), ion channels, and transporters (table S4). […] We subsequently determined that MS67 had moderate binding affinity (Ki = 1.0 ± 0.8 μM) to Sigma 2 receptor (fig. S10).

5-HT3 = target: T2, 5-HT3 (Homo sapiens, UniProt P46098); set-up: GPCR, ion channel and transporter panel, per cent inhibition of binding, mean of four
T2 construct: gene HTR3A
Method: as §1

5-HT5A = target: T3, 5-HT5A (Homo sapiens, UniProt P47898); set-up: GPCR, ion channel and transporter panel, per cent inhibition of binding, mean of four
T3 construct: gene HTR5A
Method: as §1

5-HT6 = target: T4, 5-HT6 (Homo sapiens, UniProt P50406); set-up: GPCR, ion channel and transporter panel, per cent inhibition of binding, mean of four
T4 construct: gene HTR6
T4 sequence (P50406 whole entry): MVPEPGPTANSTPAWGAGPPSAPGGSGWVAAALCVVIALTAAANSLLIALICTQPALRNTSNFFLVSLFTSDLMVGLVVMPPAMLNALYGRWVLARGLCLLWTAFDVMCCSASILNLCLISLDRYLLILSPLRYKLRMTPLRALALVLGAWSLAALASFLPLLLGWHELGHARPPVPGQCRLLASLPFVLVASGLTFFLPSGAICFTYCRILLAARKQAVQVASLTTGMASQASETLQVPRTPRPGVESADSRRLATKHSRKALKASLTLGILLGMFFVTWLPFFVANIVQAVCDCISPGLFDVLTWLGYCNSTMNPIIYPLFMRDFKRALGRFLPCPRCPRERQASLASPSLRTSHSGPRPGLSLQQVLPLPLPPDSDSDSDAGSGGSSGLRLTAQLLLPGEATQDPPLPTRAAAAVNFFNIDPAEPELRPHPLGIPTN
Method: as §1

5-HT7A = target: T5, 5-HT7A (Homo sapiens, UniProt P34969); set-up: GPCR, ion channel and transporter panel, per cent inhibition of binding, mean of four
T5 construct: gene HTR7; isoform 7A
Method: as §1

D1 = target: T6, D1 (Homo sapiens, UniProt P21728); set-up: GPCR, ion channel and transporter panel, per cent inhibition of binding, mean of four
T6 construct: gene DRD1
Method: as §1

DAT = target: T7, DAT (Homo sapiens, UniProt Q01959); set-up: GPCR, ion channel and transporter panel, per cent inhibition of binding, mean of four
T7 construct: gene SLC6A3
Method: as §1

H4 = target: T8, H4 (Homo sapiens, UniProt Q9H3N8); set-up: GPCR, ion channel and transporter panel, per cent inhibition of binding, mean of four
T8 construct: gene HRH4
Method: as §1

KOR = target: T9, KOR (Homo sapiens, UniProt P41145); set-up: GPCR, ion channel and transporter panel, per cent inhibition of binding, mean of four
T9 construct: gene OPRK1
T9 sequence (P41145 whole entry): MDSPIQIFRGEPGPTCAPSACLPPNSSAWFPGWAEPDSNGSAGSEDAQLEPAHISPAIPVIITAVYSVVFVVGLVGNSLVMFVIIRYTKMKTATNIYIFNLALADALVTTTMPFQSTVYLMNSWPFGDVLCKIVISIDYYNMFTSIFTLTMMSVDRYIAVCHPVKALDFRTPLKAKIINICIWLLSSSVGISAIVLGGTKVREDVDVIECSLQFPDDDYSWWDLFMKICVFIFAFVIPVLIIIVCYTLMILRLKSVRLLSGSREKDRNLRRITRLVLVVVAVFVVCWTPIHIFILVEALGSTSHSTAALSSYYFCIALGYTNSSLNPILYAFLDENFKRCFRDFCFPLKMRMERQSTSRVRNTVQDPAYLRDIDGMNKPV
Method: as §1

Sigma 2 = target: T10, Sigma 2 (Homo sapiens, UniProt Q5BJF2); set-up: GPCR, ion channel and transporter panel, per cent inhibition of binding, mean of four
T10 construct: gene TMEM97
Method: as §1

DOT1L = DOT1L (Homo sapiens, UniProt Q8TEK3); set-up: protein methyltransferase selectivity panel, enzyme activity relative to DMSO controls, single concentration in duplicate; details: Substrate:=Nucleosomes
Chain of DOT1L (Q8TEK3 whole entry): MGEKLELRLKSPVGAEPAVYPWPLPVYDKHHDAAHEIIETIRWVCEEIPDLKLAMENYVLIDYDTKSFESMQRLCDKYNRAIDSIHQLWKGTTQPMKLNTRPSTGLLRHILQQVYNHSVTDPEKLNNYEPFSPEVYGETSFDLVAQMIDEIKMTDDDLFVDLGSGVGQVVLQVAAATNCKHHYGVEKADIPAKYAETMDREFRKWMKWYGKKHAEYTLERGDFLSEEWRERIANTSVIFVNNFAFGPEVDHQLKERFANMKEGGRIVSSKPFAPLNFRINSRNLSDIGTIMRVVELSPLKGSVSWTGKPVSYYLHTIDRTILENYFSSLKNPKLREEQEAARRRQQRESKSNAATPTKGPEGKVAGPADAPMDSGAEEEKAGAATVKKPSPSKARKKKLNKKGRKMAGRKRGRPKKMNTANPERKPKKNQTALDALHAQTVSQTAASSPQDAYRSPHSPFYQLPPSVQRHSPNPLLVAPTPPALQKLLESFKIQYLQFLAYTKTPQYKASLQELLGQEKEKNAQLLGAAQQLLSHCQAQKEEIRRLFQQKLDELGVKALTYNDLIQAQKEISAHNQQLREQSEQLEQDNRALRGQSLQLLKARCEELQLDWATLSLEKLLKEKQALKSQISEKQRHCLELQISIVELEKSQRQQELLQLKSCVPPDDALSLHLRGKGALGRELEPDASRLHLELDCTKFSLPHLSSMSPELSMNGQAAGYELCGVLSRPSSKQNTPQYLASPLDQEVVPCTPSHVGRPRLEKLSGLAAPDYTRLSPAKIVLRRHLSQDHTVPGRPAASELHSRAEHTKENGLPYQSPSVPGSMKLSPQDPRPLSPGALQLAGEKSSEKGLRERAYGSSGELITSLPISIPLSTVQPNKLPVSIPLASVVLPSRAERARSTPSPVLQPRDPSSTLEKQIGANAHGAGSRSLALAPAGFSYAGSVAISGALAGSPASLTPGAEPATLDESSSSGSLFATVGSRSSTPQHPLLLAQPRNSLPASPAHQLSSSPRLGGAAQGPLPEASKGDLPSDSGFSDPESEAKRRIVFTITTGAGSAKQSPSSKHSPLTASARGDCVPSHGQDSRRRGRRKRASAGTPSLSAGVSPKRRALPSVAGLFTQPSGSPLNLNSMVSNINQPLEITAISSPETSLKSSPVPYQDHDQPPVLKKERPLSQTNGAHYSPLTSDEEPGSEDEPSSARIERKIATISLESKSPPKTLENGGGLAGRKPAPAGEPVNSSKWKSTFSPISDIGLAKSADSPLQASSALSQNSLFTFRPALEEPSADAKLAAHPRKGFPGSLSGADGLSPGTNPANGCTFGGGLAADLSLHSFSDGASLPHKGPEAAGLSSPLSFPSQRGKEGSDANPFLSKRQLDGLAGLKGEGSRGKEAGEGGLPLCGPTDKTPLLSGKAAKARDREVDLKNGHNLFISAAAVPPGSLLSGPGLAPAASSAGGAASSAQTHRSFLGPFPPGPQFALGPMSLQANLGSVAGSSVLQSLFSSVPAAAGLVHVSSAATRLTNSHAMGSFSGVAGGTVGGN
Method: as §1

NSD1 = NSD1 (Homo sapiens, UniProt Q96L73); set-up: protein methyltransferase selectivity panel, enzyme activity relative to DMSO controls, single concentration in duplicate; details: Substrate:=Nucleosomes
Chain of NSD1 (Q96L73 whole entry): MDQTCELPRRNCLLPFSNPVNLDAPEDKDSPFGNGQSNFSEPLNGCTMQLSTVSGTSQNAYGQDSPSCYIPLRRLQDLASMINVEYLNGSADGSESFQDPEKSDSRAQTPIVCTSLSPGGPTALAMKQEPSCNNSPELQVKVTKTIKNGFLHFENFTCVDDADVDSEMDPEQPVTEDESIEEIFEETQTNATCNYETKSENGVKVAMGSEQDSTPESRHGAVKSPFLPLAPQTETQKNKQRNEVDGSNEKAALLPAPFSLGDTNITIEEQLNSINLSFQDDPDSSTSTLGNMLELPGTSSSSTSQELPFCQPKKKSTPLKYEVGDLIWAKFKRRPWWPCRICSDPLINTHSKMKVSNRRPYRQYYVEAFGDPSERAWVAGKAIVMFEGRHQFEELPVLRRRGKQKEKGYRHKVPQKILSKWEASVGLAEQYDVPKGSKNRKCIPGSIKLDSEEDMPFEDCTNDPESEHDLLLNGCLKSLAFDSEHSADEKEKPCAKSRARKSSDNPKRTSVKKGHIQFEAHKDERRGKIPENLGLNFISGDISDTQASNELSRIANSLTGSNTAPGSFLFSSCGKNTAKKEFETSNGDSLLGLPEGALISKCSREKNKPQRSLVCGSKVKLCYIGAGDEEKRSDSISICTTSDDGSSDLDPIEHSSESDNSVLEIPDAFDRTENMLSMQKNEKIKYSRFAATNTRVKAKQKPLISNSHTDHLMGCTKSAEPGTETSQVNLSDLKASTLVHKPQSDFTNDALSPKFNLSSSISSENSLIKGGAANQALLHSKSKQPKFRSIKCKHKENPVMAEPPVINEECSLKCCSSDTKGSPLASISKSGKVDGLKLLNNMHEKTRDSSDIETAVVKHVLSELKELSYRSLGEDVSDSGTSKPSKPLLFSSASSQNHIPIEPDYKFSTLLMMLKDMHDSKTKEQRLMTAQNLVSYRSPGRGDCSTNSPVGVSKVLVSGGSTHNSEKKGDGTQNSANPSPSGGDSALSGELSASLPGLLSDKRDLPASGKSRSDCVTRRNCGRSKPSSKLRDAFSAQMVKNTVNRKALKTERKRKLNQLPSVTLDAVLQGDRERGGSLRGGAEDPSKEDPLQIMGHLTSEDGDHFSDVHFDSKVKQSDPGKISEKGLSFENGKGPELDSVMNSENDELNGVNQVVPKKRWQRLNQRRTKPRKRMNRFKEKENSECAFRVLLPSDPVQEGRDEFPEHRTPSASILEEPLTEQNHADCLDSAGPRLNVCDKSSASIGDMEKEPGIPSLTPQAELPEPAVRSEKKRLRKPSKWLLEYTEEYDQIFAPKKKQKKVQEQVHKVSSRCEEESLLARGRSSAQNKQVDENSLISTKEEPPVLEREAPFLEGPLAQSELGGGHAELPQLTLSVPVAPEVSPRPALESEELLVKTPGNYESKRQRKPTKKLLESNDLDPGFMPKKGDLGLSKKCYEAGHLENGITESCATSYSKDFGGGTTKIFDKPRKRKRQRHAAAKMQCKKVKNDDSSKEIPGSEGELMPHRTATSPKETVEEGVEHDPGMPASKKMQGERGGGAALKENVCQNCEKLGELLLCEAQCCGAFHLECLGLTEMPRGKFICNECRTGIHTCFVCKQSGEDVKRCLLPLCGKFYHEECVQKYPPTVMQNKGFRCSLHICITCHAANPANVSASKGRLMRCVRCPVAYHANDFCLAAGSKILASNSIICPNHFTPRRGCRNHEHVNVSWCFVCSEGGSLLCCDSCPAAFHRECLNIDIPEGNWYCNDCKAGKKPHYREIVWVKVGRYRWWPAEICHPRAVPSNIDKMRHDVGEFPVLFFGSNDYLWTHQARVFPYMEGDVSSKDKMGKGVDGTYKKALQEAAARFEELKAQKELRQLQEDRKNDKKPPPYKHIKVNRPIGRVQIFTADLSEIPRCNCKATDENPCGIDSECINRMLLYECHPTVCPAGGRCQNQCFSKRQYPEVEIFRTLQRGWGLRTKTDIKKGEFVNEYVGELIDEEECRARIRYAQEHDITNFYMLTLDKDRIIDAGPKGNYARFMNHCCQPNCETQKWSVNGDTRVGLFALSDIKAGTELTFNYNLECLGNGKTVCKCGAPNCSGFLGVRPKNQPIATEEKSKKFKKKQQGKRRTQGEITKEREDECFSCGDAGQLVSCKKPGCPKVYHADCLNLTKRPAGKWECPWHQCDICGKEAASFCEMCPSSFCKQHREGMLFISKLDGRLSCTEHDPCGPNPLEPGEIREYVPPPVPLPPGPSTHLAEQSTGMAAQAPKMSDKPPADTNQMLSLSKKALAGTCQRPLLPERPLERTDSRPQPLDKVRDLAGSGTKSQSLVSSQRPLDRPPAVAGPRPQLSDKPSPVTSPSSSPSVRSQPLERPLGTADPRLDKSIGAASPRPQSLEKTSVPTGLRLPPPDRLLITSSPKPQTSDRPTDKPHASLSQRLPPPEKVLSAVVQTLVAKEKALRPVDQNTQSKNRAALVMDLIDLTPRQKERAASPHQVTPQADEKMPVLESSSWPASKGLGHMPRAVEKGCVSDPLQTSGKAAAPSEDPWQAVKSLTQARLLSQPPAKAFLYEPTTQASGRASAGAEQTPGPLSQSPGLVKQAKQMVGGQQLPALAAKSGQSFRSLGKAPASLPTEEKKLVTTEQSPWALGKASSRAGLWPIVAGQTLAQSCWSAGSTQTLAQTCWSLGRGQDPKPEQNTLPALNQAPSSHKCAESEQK
Method: as §1

NSD2 = target: T11, NSD2 (Homo sapiens, UniProt O96028); set-up: protein methyltransferase selectivity panel, enzyme activity relative to DMSO controls, single concentration in duplicate; details: Substrate:=Nucleosomes
T11 sequence (O96028 1-1365): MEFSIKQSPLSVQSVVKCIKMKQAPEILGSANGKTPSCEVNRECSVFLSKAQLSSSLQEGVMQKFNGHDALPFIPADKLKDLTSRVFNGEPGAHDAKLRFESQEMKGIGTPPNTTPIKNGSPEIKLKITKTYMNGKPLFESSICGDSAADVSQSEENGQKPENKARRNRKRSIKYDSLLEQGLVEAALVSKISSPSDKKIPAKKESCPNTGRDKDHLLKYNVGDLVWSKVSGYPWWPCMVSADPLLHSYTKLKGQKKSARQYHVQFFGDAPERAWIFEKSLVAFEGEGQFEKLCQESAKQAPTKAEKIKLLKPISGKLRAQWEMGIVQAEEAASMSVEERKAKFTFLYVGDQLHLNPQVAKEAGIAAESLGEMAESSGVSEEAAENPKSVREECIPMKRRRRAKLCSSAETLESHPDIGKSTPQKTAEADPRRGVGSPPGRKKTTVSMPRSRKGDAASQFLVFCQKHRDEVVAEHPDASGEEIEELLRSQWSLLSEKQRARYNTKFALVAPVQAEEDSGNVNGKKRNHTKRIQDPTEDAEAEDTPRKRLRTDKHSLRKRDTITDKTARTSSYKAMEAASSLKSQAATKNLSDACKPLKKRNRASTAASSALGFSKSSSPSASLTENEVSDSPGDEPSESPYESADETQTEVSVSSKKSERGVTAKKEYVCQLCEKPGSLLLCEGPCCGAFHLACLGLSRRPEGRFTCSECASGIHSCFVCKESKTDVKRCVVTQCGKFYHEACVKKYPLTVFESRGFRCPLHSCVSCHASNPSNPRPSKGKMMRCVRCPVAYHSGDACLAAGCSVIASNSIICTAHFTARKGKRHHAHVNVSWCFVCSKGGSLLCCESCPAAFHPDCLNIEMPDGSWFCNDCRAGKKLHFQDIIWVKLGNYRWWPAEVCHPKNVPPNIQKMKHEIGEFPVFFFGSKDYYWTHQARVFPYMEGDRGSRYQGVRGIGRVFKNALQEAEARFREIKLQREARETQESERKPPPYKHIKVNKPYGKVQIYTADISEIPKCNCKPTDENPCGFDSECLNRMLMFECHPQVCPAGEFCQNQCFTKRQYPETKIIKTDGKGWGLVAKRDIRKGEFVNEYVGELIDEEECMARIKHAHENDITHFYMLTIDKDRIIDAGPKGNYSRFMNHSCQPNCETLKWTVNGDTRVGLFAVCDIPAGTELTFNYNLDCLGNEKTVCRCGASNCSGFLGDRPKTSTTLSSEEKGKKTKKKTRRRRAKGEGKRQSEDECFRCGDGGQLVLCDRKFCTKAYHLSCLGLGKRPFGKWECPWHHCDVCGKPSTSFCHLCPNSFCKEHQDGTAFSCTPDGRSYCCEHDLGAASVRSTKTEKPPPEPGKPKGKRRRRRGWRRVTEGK
Method: as §1

[1] = read-out: Enzyme % Activity (relative to DMSO controls) / MS67 / 10 / Data 1:
[2] = read-out: Enzyme % Activity (relative to DMSO controls) / MS67 / 10 / Data 2:

For `Cc1ncsc1-c1ccc([C@H](C)NC(=O)[C@@H]2C[C@@H](O)CN2C(=O)[C@@H](NC(=O)CNC(=O)c2ccc(F)c(-c3ccc(N4C[C@@H](C)N(C)[C@@H](C)C4)c(NC(=O)c4c[nH]c(=O)cc4C(F)(F)F)c3)c2)C(C)(C)C)cc1` [MS67], the inhibition at 1 µM (5-HT2B) was 9.31%, the inhibition at 1 µM (5-HT3) was 26.6% and the inhibition at 1 µM (5-HT5A) was 36.6%. The inhibition at 1 µM (5-HT6) was 13.7%, the inhibition at 1 µM (5-HT7A) was 12% and the inhibition at 1 µM (D1) was 18.7%. It also gave an inhibition at 1 µM (DAT) of 40.8%, an inhibition at 1 µM (H4) of 21.9% and an inhibition at 1 µM (KOR) of 26.3%. The inhibition at 1 µM (Sigma 2) was 66.6%, the remaining activity at 10 µM (DOT1L; [1]) was 95.8% and the remaining activity at 10 µM (DOT1L; [2]) was 92.3%. For the same compound, the remaining activity at 10 µM (NSD1; [1]) was 111%, the remaining activity at 10 µM (NSD1; [2]) was 107% and the remaining activity at 10 µM (NSD2; [1]) was 93%. It also gave a remaining activity at 10 µM (NSD2; [2]) of 107%.
